Here are results for 22 compounds from US20260176267A1, “PREPARATION OF IMIDAZOPYRIDINE AND IMIDAZOPYRIDAZINE DERIVATIVES AS NOVEL DIACYLGLYCERIDE O-ACYLTRANSFERASE 2 INHIBITORS” (Merck Sharp & Dohme LLC, priority 2022, published 2026).

Some results are limits rather than exact numbers.

The target in the test is T1, human DGAT2 (hDGAT2) (Homo sapiens, UniProt Q96PD7).
T1 construct: made in house; host or cells: Sf-9 insect cells (baculovirus), membrane fraction
T1 sequence (Q96PD7 1-388): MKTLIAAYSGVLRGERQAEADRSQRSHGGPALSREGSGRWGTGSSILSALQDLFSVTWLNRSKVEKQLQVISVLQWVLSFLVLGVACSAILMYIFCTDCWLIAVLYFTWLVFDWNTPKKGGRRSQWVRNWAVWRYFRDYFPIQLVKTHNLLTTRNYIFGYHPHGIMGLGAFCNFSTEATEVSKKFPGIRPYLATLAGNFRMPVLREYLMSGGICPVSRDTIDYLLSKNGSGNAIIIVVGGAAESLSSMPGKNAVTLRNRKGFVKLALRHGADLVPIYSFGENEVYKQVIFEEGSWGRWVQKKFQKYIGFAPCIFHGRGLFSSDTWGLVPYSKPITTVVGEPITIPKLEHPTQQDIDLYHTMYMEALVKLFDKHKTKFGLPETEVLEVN
The experiment in a line: DGAT2 Enzymatic Activity Assay. The test is classed as biochemical. The following applies: membrane prep of Sf-9 cells expressing hDGAT2; 13C18-triolein product by LC/MS/MS; 25 μM diolein, 5 μM 13C oleoyl-CoA, rt. In a few lines:
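Membranes from Sf-9 cells expressing untagged human DGAT2 (baculovirus, 48 h) used as enzyme at rt. The product ^13C18-triolein is quantified by LC/MS/MS against a ^13C21-triolein internal standard. Percent inhibition is taken from high and low controls, and IC50 is derived.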
One may read the IC50 as the midpoint of a concentration-inhibition curve. In turn, `CC1(NC(=O)c2cn3nc(Oc4ncc(F)cc4OCC(F)F)ccc3n2)CCS(=O)(=O)CC1` [Example 160, 6-[[3-(2,2-Difluoroethoxy)-5-fluoro-2-pyridyl]oxy]-N-(4-methyl-1,1-dioxo-thian-4-yl)imidazo[1,2-b]pyridazine-2-carboxamide] had an IC50 of 3.9 nM.

For `O=C(N[C@H]1CCCC(F)(F)[C@@H]1O)c1cn2nc(Oc3ncc(Cl)cc3OCC(F)(F)F)ccc2n1` [Example 161, 6-((5-chloro-3-(2,2,2-trifluoroethoxy)pyridin-2-yl)oxy)-N-((1S,2R)-3,3-difluoro-2-hydroxycyclohexyl)imidazo[1,2-b]pyridazine-2-carboxamide], the IC50 came out at 37 nM.

In the case of `CCOc1cccnc1Oc1ccc2nc(C(=O)NC3(C)CC(F)(F)C3)cn2c1` [Example 23, N-(3,3-difluoro-1-methyl-cyclobutyl)-6-[(3-ethoxy-2-pyridyl)oxy]imidazo[1,2-a]pyridine-2-carboxamide], inhibition was half-maximal at 31 nM (IC50).

`Cc1c(C(=O)NC2(C)CCS(=O)(=O)CC2)nc2ccc(Oc3ncc(F)cc3OCC(F)F)cn12` [Example 73, 6-[[3-(2,2-difluoroethoxy)-5-fluoro-2-pyridyl]oxy]-3-methyl-N-(4-methyl-1,1-dioxo-thian-4-yl)imidazo[1,2-a]pyridine-2-carboxamide] had an IC50 of 2.6 nM.

`CC1(NC(=O)c2cn3nc(Oc4ncc(Cl)cc4OCC(F)F)ccc3n2)CCS(=O)(=O)CC1` [Example 153, 6-((5-Chloro-3-(2,2-difluoroethoxy)pyridin-2-yl)oxy)-N-(4-methyl-1,1-dioxidotetrahydro-2H-thiopyran-4-yl)imidazo[1,2-b]pyridazine-2-carboxamide] yielded an IC50 of 3.2 nM.

Compound `Cc1c(C(=O)NC2(C)CCS(=O)(=O)CC2)nc2ccc(Oc3ncc(Cl)cc3OCC3(F)CC3)cn12` [Example 81, 6-[[5-chloro-3-[(1-fluorocyclopropyl)methoxy]-2-pyridyl]oxy]-3-methyl-N-(4-methyl-1,1-dioxo-thian-4-yl)imidazo[1,2-a]pyridine-2-carboxamide] had an IC50 of 3.5 nM.

`Cc1c(C(=O)NC2(C)CCS(=O)(=O)CC2)nc2ccc(Oc3ncc(Cl)cc3OCC(F)F)cn12` [Example 71, 6-[[5-chloro-3-(2,2-difluoroethoxy)-2-pyridyl]oxy]-3-methyl-N-(4-methyl-1,1-dioxo-thian-4-yl)imidazo[1,2-a]pyridine-2-carboxamide]: the IC50 stood at 1.4 nM.

In the case of `Cc1ccc(OCC(F)(F)F)c(Oc2ccc3nc(C(=O)NC4(C)CCS(=O)(=O)CC4)c(C)n3c2)n1` [Example 111], half-maximal inhibition (IC50) required 298 nM.

As for `Cc1c(C(=O)NC2(C)CCS(=O)(=O)CC2)nc2ccc(Oc3ncc(Cl)cc3OCC(F)F)nn12` [Example 166, 6-((5-Chloro-3-(2,2-difluoroethoxy)pyridin-2-yl)oxy)-3-methyl-N-(4-methyl-1,1-dioxidotetrahydro-2H-thiopyran-4-yl)imidazo[1,2-b]pyridazine-2-carboxamide], the IC50 worked out at 6.8 nM.

Take `CCC1(NC(=O)c2nc3ccc(Oc4nccnc4OCC(F)(F)F)cn3c2C)CCS(=O)(=O)CC1` [Example 106, N-(4-ethyl-1,1-dioxo-thian-4-yl)-3-methyl-6-[3-(2,2,2-trifluoroethoxy)pyrazin-2-yl]oxy-imidazo[1,2-a]pyridine-2-carboxamide]: half-maximal inhibition (IC50) was put at 638 nM.

`CC1(NC(=O)c2cn3cc(Oc4ncccc4OCC(F)(F)F)cc(C(F)(F)F)c3n2)CCS(=O)(=O)CC1` [Example 56, N-(4-methyl-1,1-dioxo-thian-4-yl)-6-[[3-(2,2,2-trifluoroethoxy)-2-pyridyl]oxy]-8-(trifluoromethyl)imidazo[1,2-a]pyridine-2-carboxamide]: the IC50 was > 9990 nM.

On to `Cc1c(C(=O)NC2(C(C)C)CCS(=O)(=O)CC2)nc2ccc(Oc3ncc(F)cc3OCC(F)(F)F)cn12` [Example 91, 6-[[5-fluoro-3-(2,2,2-trifluoroethoxy)-2-pyridyl]oxy]-N-(4-isopropyl-1,1-dioxo-thian-4-yl)-3-methyl-imidazo[1,2-a]pyridine-2-carboxamide], for which the IC50 came out at 22 nM.

For `CC1(NC(=O)c2cn3nc(Oc4ncc(F)cc4OC4CCC4)ccc3n2)CCS(=O)(=O)CC1` [Example 158, 6-[[3-(Cyclobutoxy)-5-fluoro-2-pyridyl]oxy]-N-(4-methyl-1,1-dioxo-thian-4-yl)imidazo[1,2-b]pyridazine-2-carboxamide], the midpoint of inhibition, the IC50, lay at 590 nM.

On to `Cc1cnc(Oc2ccc3nc(C(=O)NC4(C)CCS(=O)(=O)CC4)c(C)n3c2)c(OCC(F)(F)F)c1` [Example 144, 3-methyl-N-(4-methyl-1,1-dioxo-thian-4-yl)-6-[[5-methyl-3-(2,2,2-trifluoroethoxy)-2-pyridyl]oxy]imidazo[1,2-a]pyridine-2-carboxamide], for which the IC50 was 8.9 nM.

`CS(=O)(=O)CC1(NC(=O)c2cn3nc(Oc4ncc(Cl)cc4OCC(F)F)ccc3n2)CCC1` [Example 163, 6-[[5-Chloro-3-(2,2-difluoroethoxy)-2-pyridyl]oxy]-N-[1-(methylsulfonylmethyl)cyclobutyl] imidazo[1,2-b]pyridazine-2-carboxamide]: half-maximal inhibition (IC50) required 207 nM.

`Cc1cnc(Oc2ccc3nc(C(=O)NC4(C)CS(=O)(=O)C4)c(C)n3c2)c(OCC(F)(F)F)n1` [Example 96] came in with an IC50 of 5.7 nM.

Turning to `Cc1c(C(=O)NC2(C)CS(=O)(=O)C2)nc2ccc(Oc3ncc(Cl)cc3OCC(F)(F)F)cn12` [Example 84, 6-[[5-chloro-3-(2,2,2-trifluoroethoxy)-2-pyridyl]oxy]-3-methyl-N-(3-methyl-1,1-dioxo-thietan-3-yl)imidazo[1,2-a]pyridine-2-carboxamide], half-maximal inhibition (IC50) was put at 6.2 nM.

`CC1(NC(=O)c2cn3nc(Oc4ncc(F)cc4OCC(F)(F)F)ccc3n2)CCS(=O)(=O)CC1` [Example 164, 6-[[5-Fluoro-3-(2,2,2-trifluoroethoxy)-2-pyridyl]oxy]-N-(4-methyl-1,1-dioxo-thian-4-yl)imidazo[1,2-b]pyridazine-2-carboxamide] showed an IC50 of 16 nM.

`CC1(NC(=O)c2cn3cc(Oc4ncc(F)cc4OCC(F)(F)F)ccc3n2)CS(=O)(=O)C1` [Example 32, 6-[[5-fluoro-3-(2,2,2-trifluoroethoxy)-2-pyridyl]oxy]-N-(3-methyl-1,1-dioxo-thietan-3-yl)imidazo[1,2-a]pyridine-2-carboxamide] registered an IC50 of 31 nM.

The compound `Cc1c(Oc2ncc(Cl)cc2OCC(C)(F)F)ccc2nc(C(=O)NC3(C)CCS(=O)(=O)CC3)c(F)n12` [Example 143, 6-[[5-chloro-3-(2,2-difluoropropoxy)-2-pyridyl]oxy]-3-fluoro-5-methyl-N-(4-methyl-1,1-dioxo-thian-4-yl)imidazo[1,2-a]pyridine-2-carboxamide] displayed an IC50 of 37 nM.

Compound `CC1(NC(=O)c2nc3ccc(Oc4ncc(F)cc4OCC(F)(F)F)c(Cl)n3c2Cl)CCS(=O)(=O)CC1` [Example 139, 3,5-dichloro-6-[[5-fluoro-3-(2,2,2-trifluoroethoxy)-2-pyridyl]oxy]-N-(4-methyl-1,1-dioxo-thian-4-yl)imidazo[1,2-a]pyridine-2-carboxamide] had an IC50 of 0.7 nM.

With `Cc1c(C(=O)NC2CCS(=O)(=O)C(C)(C)C2)nc2ccc(Oc3ncc(F)cc3OCC(F)(F)F)cn12` (stereo not shown) [Example 105, N-(2,2-dimethyl-1,1-dioxo-thian-4-yl)-6-[[5-fluoro-3-(2,2,2-trifluoroethoxy)-2-pyridyl]oxy]-3-methyl-imidazo[1,2-a]pyridine-2-carboxamide], the IC50 is 193 nM.
